Test results published in patent US11534438B2, “Composition containing piperacillin, pharmaceutical formulation thereof and use thereof” (priority 2017, dated 2022).
Read-outs that look alike come from different tables or passages of the source.

Key:
[1] = tested on: ATCC19606 (a standard strain of A. baumannii); test: Animal protection experiment, mice infected with ATCC19606; assay type: in vivo, Acinetobacter baumannii; conditions: for ED50: Acinetobacter baumannii; for inhibitory effect on the standard strain of A. baumannii without drug resistance (in words): infected ICR mice, summary of Table 1
Protocol: (§1) Tested animals were ICR mice. Tested bacterial strains were ATCC19606 (a standard strain of A. baumannii), CBP-R (a carbapenem-resistant strain of A. baumannii), and CPZ/S-R (a cefoperazone-sulbactam-resistant strain of A. baumannii). Among them, the standard strain was obtained from ATCC, and the other strains were clinically isolated.
(§2) Determining the dose ranges of the tested samples: The tested strains were diluted with 5% high active dry yeast to obtain bacterial dilutions of different concentrations (10^−1, 10^−2, 10^−3, and 10^−4), and then intraperitoneally injected into the tested animals in 0.5 ml/mice. The number of dead mice after infection was recorded. The minimum bacterial dose, which kills 100% members of the mice, was recorded as 1 MLD. The mice were infected with 1 MLD of bacteria which was formulated with 5% high active dry yeast Immediately and 6 hours after the infection, a preliminary experiment was carried out with high, median and low dosages of the tested samples, and the survival numbers of the mice after infection were recorded. Based on the results of the preliminary experiment, the administration dosages of the tested samples were designed for the animal protection experiment.
(§3) Animal protection experiment: After fasting with water only for 18 h, the mice (half male and female, 25-30 g body weight) were randomly divided into: (1) ATCC19606 group, (2) CBP-R group, and (3) CPZ/S-R group. Each group was treated with five concentrations of the samples, and included 10 animals. In addition, 10 animals were incorporated as a control group. Each mouse was intraperitoneally injected with 0.5 ml of 1 MLD bacterial solution to establish an infection model. At 0 h and 6 h after infection, the mice were subcutaneously injected with different concentrations of the tested samples, 0.2 ml/mice, and the mice of the control group were injected with the same volume of sterilized water. The animals were observed continuously for 7 days, and the death of animals in each group was recorded. The 50% effective dose (ED50) of each tested sample was calculated by the Bliss method. Smaller ED50 means that the tested sample has better anti-bacterial effect in vivo, and better protective effect on the experimental animals.

[2] = tested on: CBP-R (a carbapenem-resistant strain of A. baumannii); test: Animal protection experiment, mice infected with CBP-R; assay type: in vivo, Acinetobacter baumannii; conditions: for ED50: Acinetobacter baumannii, read-out: ED50 for animals infected with A. baumannii, CBP-R a carbapenem-resistant A. baumannii; for inhibitory / anti-bacterial effect on drug-resistant strains of A. baumannii (in words): infected ICR mice, drug-resistant strains (CBP-R and CPZ/S-R), summary of Table 1
Protocol: as §1, §2, §3

[3] = tested on: CPZ/S-R (a cefoperazone-sulbactam-resistant strain of A. baumannii); test: Animal protection experiment, mice infected with CPZ/S-R; assay type: in vivo; conditions: Acinetobacter baumannii, read-out: ED50 for animals infected with A. baumannii, CPZ/S-R a cefoperazone-sulbactam resistant A. baumannii
Protocol: as §1
as §2, with “Based on the results of the preliminary experiment, the administration dosages of the tested samples were designed for the animal protection experiment.” left out
Animal protection experiment: After fasting with water only for 18 h, the mice (half male and female, 25-30 g body weight) were randomly divided into: (1) ATCC19606 group, (2) CBP-R group, and (3) CPZ/S-R group. […] The animals were observed continuously for 7 days, and the death of animals in each group was recorded. […]

A. baumannii = conditions: it is reported; cited from earlier work
[4] = ICR mice, 1 MLD i.p. infection, s.c. dosing at 0 h and 6 h, 7 days observation, Bliss method

SMILES | ED50 ([1]; ATCC19606, ICR mice, 1 MLD i.p. infection, s.c. dosing at 0 h and 6 h, 7 days observation, Bliss method, read-out: ED50 for animals infected with A. baumannii, ATCC19606 a standard strain) [mg/kg] | inhibitory effect on the standard strain of A. baumannii without drug resistance (in words) [1] | ED50 [2, 4] [mg/kg] | inhibitory / anti-bacterial effect on drug-resistant strains of A. baumannii (in words) [2] | ED50 [3, 4] [mg/kg] | ED50 ([1]; ATCC19606, read-out: ED50 for animals infected with A. baumannii, ATCC19606 a standard strain) [mg/kg] | ED50 [2] [mg/kg] | ED50 [3] [mg/kg] | resistance rate of A. baumannii (A. baumannii)
C[C@@H](O)[C@H]1C(=O)N2C(C(=O)O)=C(S[C@@H]3CN[C@H](C(=O)N(C)C)C3)[C@H](C)[C@H]12 [Meropenem] | < 20 | more advantageous in pharmaceutical efficacy | > 200 | significantly decreased inhibitory effect | 100 to 200 |  |  |  | 
CC1(C)[C@H](C(=O)O)N2C(=O)C[C@H]2S1(=O)=O [Sulbactam, (2S,5R)-3,3-dimethyl-7-oxo-4-thia-1-azabicyclo[3.2.0]heptane-2-carboxylic acid-4,4-dioxide] |  | more advantageous in pharmaceutical efficacy |  | significantly decreased inhibitory effect |  | < 20 | 100 to 200 | > 200 | 
CCN1CCN(C(=O)N[C@@H](C(=O)N[C@@H]2C(=O)N3[C@@H]2SC(C)(C)[C@@H]3C(=O)O)c2ccccc2)C(=O)C1=O [piperacillin] |  |  |  |  |  |  |  |  | over 70%
